From patent publication US6162810A, “Inadone and tetralone compounds for inhibiting cell proliferation” (The Regents of the University of California, priority 1998, dated 2000)
Entries after “also recorded” stand apart in the source; their conditions may differ.

How the values were obtained:
MES-SA/DX5 = test: Growth inhibition of MES-SA/DX5 (MDR); format: cell-based; details: Homo sapiens, ±1 SD, n>5
tubulin [1] = test: Inhibition of tubulin assembly; format: biochemical, bovine; details: 10 μM tubulin, 20 min incubation, 30° C.; read-out: GI50 inhibitory concentration (tubulin assembly)
Protocol: (§1) To evaluate the effects of the TB compounds of the invention on tubulin, bovine brain tubulin (2.2 mg/ml) was incubated in PEM80 (80 mM K-PIPES, 1 mM MgCl2, 1 mM EGTA) containing 10% glycerol and 2 mM GTP for 30 minutes at 37° C. in the presence or absence of 20 μg/ml nocodazole, 1 mM paclitaxel, or TB compound no. IK-178 at various concentrations. Tubulin polymer was resolved from monomer by sedimentation through a cushion of 60% glycerol in PEM80 at 70,000 rpm for 30 min at 37° C. in a Beckman TLA100 rotor. A fraction of the supernatant was removed for analysis, the cushion washed and then aspirated, and the pellet resuspended in SDS-PAGE sample buffer. Equal proportions of the supernatant and the pellet were then resolved by SDS-PAGE and tubulin visualized by staining with Coomassie blue.
(§2) The quantitative assessment of drug inhibition of tubulin polymerization and evaluation of inhibition of [^3 H]colchicine binding to tubulin were then performed. […] Samples were placed on ice and GTP (0.4 mM) was added. Reaction mixtures were transferred to 0° C. cuvettes in Gilford 250 spectrophotometers, baselines were establishes/d, and the temperature was jumped to 30° C. with electronic temperature controllers (about 60 sec). The IC^50 was defined as the drug concentration required to inhibit extent of assembly after a 20 min incubation. […]

human cancer cell lines = test: Hollow fiber assay, in vivo growth inhibitory activity; parameters: species or system human cells in mice
Protocol: To screen the compounds of the invention for growth inhibitory activity, a hollow fiber assay test was performed according to the protocol established by the National Cancer Institute's Developmental Therapeutics Program.
Briefly, according to the National Cancer Institute, the hollow fiber assay is performed as follows:
For these assays, human tumor cells are cultivated in polyvinylidene fluoride (PVDF) hollow fibers, and a sample of each cell line is implanted into each of two physiologic compartments (intraperitoneal and subcutaneous) in mice. Each test mouse receives a total of 6 fibers (3 intraperitoneally and 3 subcutaneously) representing 3 distinct cancer cell lines. Three mice are treated with potential antitumor compounds at each of 2 test doses by the intraperitoneal route using a QD×4 treatment schedule. Vehicle controls consist of 6 mice receiving the compound diluent only. The fiber cultures are collected on the day following the last day of treatment. To assess anticancer effects, viable cell mass is determined for each of the cell lines using a formazan dye (MTT) conversion assay. From this, the % T/C can be calculated using the average optical density of the compound treated samples divided by the average optical density of the vehicle controls. In addition, the net increase in cell mass can be determined for each sample as a sample of fiber cultures are assessed for viable cell mass on the day of implantation into mice. Thus, the cytostatic and cytocidal capacities of the test compound can be assessed.
This represents a total of 4 experiments since each experiment contains 3 cell lines. The data are reported as % T/C for each of the 2 compound doses against each of the cell lines with separate values calculated for the intraperitoneal and subcutaneous samples.
Compounds are selected for further in vivo testing in standard subcutaneous xenograft models on the basis of several hollow fiber assay criteria. […] The intraperitoneal and subcutaneous samples are scored separately so that criteria (1) and (2) can be evaluated. […]

CEM = test: Growth inhibition of CEM (wild type); format: cell-based; details: Homo sapiens, CCRF-CEM, ±1 SD, n>5
KB-GRC-1 = test: Growth inhibition of KB-GRC-1 (MDR); format: cell-based; details: Homo sapiens, MDR1, ±1 SD, n>5
MDA3-1/gp170 = test: Growth inhibition of MDA3-1/gp170 (MDR); format: cell-based; details: Homo sapiens, MDR1, ±1 SD, n>5
MCF-7/ADR cells = test: Cell death of stationary phase MCF-7/ADR cells (FACS); format: cell-based, human; details: noncycling MCF-7/ADR cells
MCF-7 = test: Growth inhibition of MCF-7 (wild type); format: cell-based; details: Homo sapiens, MCF7, ±1 SD, n>5
MCF-7 wild type cells = test: Cell death of stationary phase MCF-7 wild type cells (FACS); format: cell-based, human; details: MCF-7 wild type (parental) cells
MV522/Q6 = test: Growth inhibition of MV522/Q6 (MDR); format: cell-based; details: Homo sapiens, ±1 SD, n>5
caspase-3 in HL-60 cells = test: Caspase-3 activation in HL-60 cells; format: cell-based, human
[2] = test system: tubulin (colchicine-binding site); test: Inhibition of [3H]colchicine binding to tubulin; parameters: species or system bovine; details: 5 μM compound, 5 μM [3H]colchicine, 1 μM tubulin, n=4
Protocol: as §1, §2

[3] = test system: normal peripheral blood lymphocytes; test: Viability of normal peripheral blood lymphocytes; format: cell-based; details: as much as 1000-fold higher concentrations, 72 hours
HL-60 = test: Growth inhibition of HL-60 (wild type); format: cell-based; details: Homo sapiens, ±1 SD, n>5
[4] = test system: caspase-3 in MCF-7/ADR cells; test: Caspase-3 activation in noncycling MCF-7/ADR cells; format: cell-based, human
Protocol: Briefly, cell extracts were prepared from 5×10^6 cells in 100 μl of a lysis buffer (25 mM TrisHCl, pH 7.5, 150 mM KCl, 5 mM EDNA, 1% Nonidet P-40, 0.5% sodium deoxycholate, and 0.1% SDS) and maintained on ice for 10 min, followed by centrifugation at 14,000×g for 5 min at 4° C. The resulting supernatants were collected and frozen at -80° C. or used immediately. Lysates (20 μl, 5-10 μg of total protein) were mixed with 30 μl of assay buffer (50 mM PIPES, 50 mM KC, 5 mM EGTA, 2 mM MgCl2, 1 mM dithiothreitol (DTT), and 0.1 phenylmethanesulfonyl fluoride (PMSF)), containing 100 μM of Z-DEVD-AFC. Caspase-3-like protease activity was measured at 37° C. using a spectrofluorometric plate reader (Perkin-Elmer, LS50B) in the kinetic mode with excitation and emission wavelengths of 400 and 505 nm, respectively. Activity was measured by the release of […] from the synthetic substrate Z-DEVD-AFC (Biomol, Plymouth Meeting, Pa.).

MCF-7/ADR = test: Growth inhibition of MCF-7/ADR (MDR); format: cell-based; details: Homo sapiens, NCI/ADR-RES, ±1 SD, n>5
MES-SA = test: Growth inhibition of MES-SA (wild type); format: cell-based; details: Homo sapiens, ±1 SD, n>5
tubulin [5] = test: Inhibition of [3H]vinblastine binding to tubulin; parameters: species or system bovine; details: single experiment
Protocol: The TB compounds of the invention (as represented by TB compound IK-178), are nearly as potent as the strong tubulin assembly inhibitor, combretastatin A-4 (CS-A4). In particular, the GI^50 inhibitory concentration of CS-A4 was 1.2±0.03 μM (n=4), while that of TB compound IK-178 was 1.7±0.1 μM (n=3).

HL-60/ADR cells = test: Apoptosis of HL-60/ADR cells (FACS); format: cell-based, human
Protocol: FACS analysis was performed to determine the influence of the TB compounds of the invention on growth cycling of cells (the analysis was performed on harvested cells, fixed in ice-cold 70% ethanol solution, then treated with 100 μg/ml of RNAse A and stained with 50 μg/ml propidium iodide for 1 h at 37° C. DNA content of the cells was analyzed by flow cytometry (Becton Dickinson FACScalibur), and the cell cycle distribution was calculated with the program ModFit LT 2.0 (Verity Software)).
First, the stage at which the TB compounds of the invention arrest growth of HL-60 and HL-60/ADR cells was determined by FACS analysis and caspase-3 activation as described above.

CEM/VLB100 = test: Growth inhibition of CEM/VLB100 (MDR); format: cell-based; details: Homo sapiens, ±1 SD, n>5
KB-3-1 = test: Growth inhibition of KB-3-1 (wild type); format: cell-based; details: Homo sapiens, ±1 SD, n>5
MV522 = test: Growth inhibition of MV522 (wild type); format: cell-based; details: Homo sapiens, ±1 SD, n>5
HL-60/ADR = test: Growth inhibition of HL-60/ADR (MDR); format: cell-based; details: Homo sapiens, HL60/ADR, ±1 SD, n>5
[6] = test system: HL-60/ADR and MDF-7/ADR cells; test: MTT assay, visual comparison of cells with and without MDR (FIGS. 1 and 2); format: cell-based, human; details: 3 days
KB-GRC-1 and MV522/Q6 = test: MTT proliferation assay of mdr1 overexpressing transfectomas; format: cell-based, human; details: 72 h
MDA-MB-321 = test: Growth inhibition of MDA-MB-321 (wild type); format: cell-based; details: Homo sapiens, ±1 SD, n>5
[7] = test system: caspase-3 in HL-60/ADR cells; test: Caspase-3 activation in HL-60/ADR cells; format: cell-based, human; details: 10 nM

With `COc1cc2c(c(N)c1OC)C(=O)/C(=C\c1cc(C)c(O)c(C)c1)C2` [IK-178] the GI50 (MES-SA/DX5) was 0.012 ± 0.003 µM, the GI50 (tubulin [1]) was 1.7 ± 0.1 µM and the “TOTAL SCORE (IP + SC)” value (human cancer cell lines; IP + SC) was 24. For the same compound, the “IP SCORE” value (human cancer cell lines; intraperitoneal fibers, intraperitoneal treatment QD×4) was 18, the “SC SCORE” value (human cancer cell lines; subcutaneous fibers, intraperitoneal treatment QD×4) was 6 and the GI50 (CEM) was 0.012 ± 0.002 µM. For the same compound, the GI50 (KB-GRC-1) was 0.007 ± 0.003 µM, the GI50 (MDA3-1/gp170) was 0.025 ± 0.002 µM and the “cell death / apoptosis” value (MCF-7/ADR cells) was “appearance of an apoptotic sub-G0 /G1 peak”. For the same compound, the “cell death / apoptosis” value (MCF-7/ADR cells; listed as indanocine) was “die following treatment”, the GI50 (MCF-7) was 0.02 ± 0.005 µM and the “cell death / apoptosis” value (MCF-7 wild type cells) was “growth-arrested but did not show any apoptotic features”. For the same compound, the GI50 (MV522/Q6) was 0.008 ± 0.002 µM, the caspase-3 activity (caspase-3 in HL-60 cells; HL-60 cells) was “only a slight increase” and the “caspase-3 activity relative to the level in the multidrug resistant cells” value (caspase-3 in HL-60 cells; HL-60 wild type vs HL-60/ADR) was “about a quarter”. For the same compound, the “inhibition of [3H]colchicine binding” value [2] was 95±2%, the loss of viability [3] was “no loss of viability” and the GI50 (HL-60) was 0.04 ± 0.003 µM. For the same compound, the “activation of caspase-3” value [4] was “activation of caspase-3”, the GI50 (MCF-7/ADR) was 0.004 ± 0.001 µM and the GI50 (MES-SA) was 0.085 ± 0.006 µM. The “inhibition of [3H]vinblastine binding to tubulin” value (tubulin [5]) was “Neither agent inhibited”, the apoptosis (HL-60/ADR cells) was “became apoptotic; also recorded: did induce” and the GI50 (CEM/VLB100) was 0.02 ± 0.001 µM. For the same compound, the GI50 (KB-3-1) was 0.007 ± 0.002 µM, the GI50 (MV522) was 0.013 ± 0.003 µM and the GI50 (HL-60/ADR) was 0.002 ± 0.0002 µM. For the same compound, the “sensitivity with acquisition of MDR” value [6] was “retained, and even enhanced”, the “sensitivity of transfectomas overexpressing mdr1” value (KB-GRC-1 and MV522/Q6) was “retained complete sensitivity” and the GI50 (MDA-MB-321) was 0.01 ± 0.003 µM. The “time of maximum caspase-3 activity” value [7] was 24 h and the caspase-3 activity ([7]; compared with untreated cells) was “time-dependent increase in caspase-3 activity”.
